Source: article PMC9469100, “Turning Nonselective Inhibitors of Type I Protein Arginine Methyltransferases into Potent and Selective Inhibitors of Protein Arginine Methyltransferase 4 through a Deconstruction–Reconstruction and Fragment-Growing Approach” (Journal of Medicinal Chemistry, 2022)
Where two headings read alike, the source gives them in different places.

What was measured:
PRMT1 = PRMT1 (Homo sapiens, UniProt Q99873); assay: AlphaLISA PRMT1 activity assay (H4R3me); conditions: for IC50: AlphaLISA, hPRMT1, 10-concentration mode, threefold dilutions starting at 100 μM; for LE: ligand efficiency calculated from PRMT1 IC50 as a surrogate for KD
Sequence of PRMT1 (Q99873 whole entry): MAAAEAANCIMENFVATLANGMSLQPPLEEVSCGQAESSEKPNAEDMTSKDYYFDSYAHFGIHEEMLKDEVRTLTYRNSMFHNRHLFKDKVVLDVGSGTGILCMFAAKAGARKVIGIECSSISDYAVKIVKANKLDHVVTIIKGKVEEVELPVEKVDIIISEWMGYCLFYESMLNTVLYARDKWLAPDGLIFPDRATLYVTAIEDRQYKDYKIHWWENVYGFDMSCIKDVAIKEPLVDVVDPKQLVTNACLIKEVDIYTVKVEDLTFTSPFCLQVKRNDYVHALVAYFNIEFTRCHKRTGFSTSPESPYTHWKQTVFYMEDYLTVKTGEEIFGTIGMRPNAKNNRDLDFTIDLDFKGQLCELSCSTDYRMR
Method: Then, we resolved to determine their effect on the catalytic activity of human recombinant PRMT1, chosen as representative of class I PRMTs. […] PRMT1 activity assays were performed by taking advantage of the AlphaLISA homogeneous proximity assay.
The reaction was incubated for 60 min, and then it was stopped by the addition of 5 μL of antimethyl-histone H4 arginine 3 (H4R3me) AlphaLISA acceptor beads (PerkinElmer, #AL150) (final concentration, 20 μg/mL) diluted in Epigenetic Buffer 1X (PerkinElmer, #AL008).
For each incubation step, the OptiPlate was sealed with protective foil to prevent evaporation and contamination. Donor and acceptor beads were added in subdued light.
The 100% activity (positive control) was reached using the vehicle (DMSO) while the 0% activity (negative control) was obtained without the protein. Data were analyzed using Excel software. Values obtained for each compound are mean ± SD determined for three separate experiments.

[1] = molecular target: T1, human PRMT4 (full length) (Homo sapiens, UniProt Q86X55); assay: SPR binding to immobilized PRMT4
T1 construct: Full-length recombinant PRMT4 (Active motif, # 81107); purchased Active motif # 81107
T1 sequence (Q86X55 1-608): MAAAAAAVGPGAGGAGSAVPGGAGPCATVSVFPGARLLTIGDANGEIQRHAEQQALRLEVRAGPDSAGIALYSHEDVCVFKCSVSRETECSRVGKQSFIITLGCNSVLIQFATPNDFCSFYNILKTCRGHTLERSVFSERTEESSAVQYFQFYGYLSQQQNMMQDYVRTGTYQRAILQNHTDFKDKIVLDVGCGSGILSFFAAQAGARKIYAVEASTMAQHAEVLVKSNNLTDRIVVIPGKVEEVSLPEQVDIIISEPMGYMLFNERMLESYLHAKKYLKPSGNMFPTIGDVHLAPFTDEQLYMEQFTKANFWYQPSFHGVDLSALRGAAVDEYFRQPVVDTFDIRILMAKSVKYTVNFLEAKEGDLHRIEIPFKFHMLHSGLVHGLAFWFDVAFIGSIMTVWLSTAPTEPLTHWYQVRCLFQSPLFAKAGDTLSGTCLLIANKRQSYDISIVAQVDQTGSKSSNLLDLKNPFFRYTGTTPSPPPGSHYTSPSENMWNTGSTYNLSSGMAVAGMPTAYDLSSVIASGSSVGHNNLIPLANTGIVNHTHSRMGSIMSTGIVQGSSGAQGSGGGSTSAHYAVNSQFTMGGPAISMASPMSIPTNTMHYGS
Method: To this aim, human PRMT4 (full length) was covalently immobilized on a sensor chip surface using an amine-coupling approach, and the three compounds were injected at different concentrations over the protein surface. To reduce false positives from detergent-sensitive, nonspecific aggregation-based binding, detergents (0.05% Tween-20) were added to the running buffer in all experiments.
SPR experiments were performed on a Biacore T200 biosensor (Cytiva). PBS buffer (phosphate-buffered saline, pH 7.4) supplemented with 0.05% Tween-20 was used as the running buffer. […] One flow cell was left empty for background subtractions. […] Each compound was tested in […], prepared starting from 640 to 10 nM. Binding experiments were performed at 25 °C by using a flow rate of 30 μL/min, with 90 s monitoring of association and 90 s monitoring of dissociation. Regeneration of the surfaces was performed, when necessary, by a 10 s injection of 5 mM NaOH. […] The corrected sensorgrams for each compound were fitted simultaneously using a 1:1 Langmuir model to obtain equilibrium dissociation constants (KD) and kinetic dissociation (koff) and association (kon) constants.

[2] = read-out: % PRMT1 residual activ. @ 100 μM
[3] = read-out: % PRMT1 residual activity at 100 uM

| remaining activity at 100 µM (PRMT1; [2]) [%] | remaining activity at 100 µM (PRMT1; [3]) [%] | SMILES | further results |
| --- | --- | --- | --- |
| 35 ± 0.3 | 35 ± 0.3 | COC(=O)c1cc(O)c2cc(NC(=O)CCCCNC(=N)N)ccc2c1 [5a, Methyl 6-(5-Guanidinopentanamido)-4-hydroxy-2-naphthoate] |  |
| 75.9 ± 4.8 | 75.9 ± 4.8 | COC(=O)c1cc(O)c2cc(NC(=O)[C@H](CCSC)NC(=O)Nc3ccc(OC)cc3)ccc2c1 [9d, Methyl (S)-4-Hydroxy-6-(2-(3-(4-methoxyphenyl)ureido)-4-(methylthio)butanamido)-2-naphthoate] |  |
| 65.9 ± 1 | 65.9 ± 1 | N=C(N)NCCCCCC(=O)Nc1ccc2cc(C(=O)O)cc(O)c2c1 [6b, 6-(6-Guanidinohexanamido)-4-hydroxy-2-naphthoic Acid] |  |
| 0.2 ± 0.1 | 0.2 ± 0.1 | CNC(=N)NCCCNC(=O)Nc1ccc2cc(C(=O)OC)cc(O)c2c1 [7d, Methyl 4-Hydroxy-6-(3-(3-(3-methylguanidino)propyl)ureido)-2-naphthoate] | IC50 (PRMT1): 0.4 µM; LE (PRMT1): 0.33 |
| 34.2 ± 5.1 | 34.2 ± 5.1 | COC(=O)c1cc(O)c2cc(NC(=O)[C@@H](N)CCCNC(=N)N)ccc2c1 [11c, Methyl (S)-6-(2-Amino-5-guanidinopentanamido)-4-hydroxy-2-naphthoate] |  |
| 25.1 ± 1.5 | 25.1 ± 1.5 | O=C(CCCCNC1=NCCN1)Nc1ccc2cc(C(=O)O)cc(O)c2c1 [6f, 6-(5-((4,5-Dihydro-1H-imidazol-2-yl)amino)pentanamido)-4-hydroxy-2-naphthoic Acid] |  |
| 0.4 ± 0.1 | 0.4 ± 0.1 | COC(=O)c1cc(O)c2cc(NC(=O)NCCCNC(=N)N)ccc2c1 [7a, Methyl 6-(3-(3-Guanidinopropyl)ureido)-4-hydroxy-2-naphthoate] | IC50 (PRMT1): 1.6 µM; LE (PRMT1): 0.31 |
| 92.1 ± 15.8 | 92.1 ± 15.8 | COC(=O)c1cc(O)c2cc(NC(=O)[C@@H](N)CCSC)ccc2c1 [9c, Methyl (S)-6-(2-Amino-4-(methylthio)butanamido)-4-hydroxy-2-naphthoate] |  |
| 31.5 ± 3.1 | 31.5 ± 3.1 | N=C(N)NCCCCNC(=O)Nc1ccc2cc(C(=O)O)cc(O)c2c1 [8a, 6-(3-(4-Guanidinobutyl)ureido)-4-hydroxy-2-naphthoic Acid] |  |
| 36.9 ± 10.5 | 36.9 ± 10.5 | O=C(NCCCn1ccnc1)Nc1ccc2cc(C(=O)O)cc(O)c2c1 [8b, 6-(3-(3-(1H-Imidazol-1-yl)propyl)ureido)-4-hydroxy-2-naphthoic Acid] |  |
| -0.91 ± 0.1 | -0.91 ± 0.1 | COC(=O)c1cc(O)c2cc(NC(=O)NCCCCCNC(=N)N)ccc2c1 [7c, Methyl 6-(3-(5-Guanidinopentyl)ureido)-4-hydroxy-2-naphthoate] | IC50 (PRMT1): 1.2 µM; LE (PRMT1): 0.30 |
| -0.49 ± 0.1 | -0.49 ± 0.1 | COC(=O)c1cc(O)c2cc(NC(=O)CCCCCCNC(=N)N)ccc2c1 [5c, Methyl 6-(7-Guanidinoheptanamido)-4-hydroxy-2-naphthoate] | IC50 (PRMT1): 3.8 µM; LE (PRMT1): 0.27 |
| 65.6 ± 2.1 | 65.6 ± 2.1 | COC(=O)c1cc(O)c2cc(NC(=O)NCCCn3ccnc3)ccc2c1 [7f, Methyl 6-(3-(3-(1H-Imidazol-1-yl)propyl)ureido)-4-hydroxy-2-naphthoate] |  |
|  |  | C[S+](CC[C@H](N)C(=O)[O-])C[C@H]1O[C@@H](n2cnc3c(N)ncnc32)[C@H](O)[C@@H]1O (stereo partly drawn) [SAM, S-adenosyl-L-methionine, reference compound] | Kd [1]: 0.0096 µM; koff ([1]; SPR, immobilized PRMT4): 0.003 s⁻¹; kon ([1]; SPR, immobilized PRMT4, read-out: kon): 290000 M⁻¹ s⁻¹; τR ([1]; in vitro residence time, τ = 1/koff): 333.3 s |
| 50.4 ± 0.2 | 50.4 ± 0.2 | CNC(=N)NCCCCCC(=O)Nc1ccc2cc(C(=O)O)cc(O)c2c1 [6d, 4-Hydroxy-6-(6-(3-methylguanidino)hexanamido)-2-naphthoic Acid] |  |
| 87.1 ± 2.9 | 87.1 ± 2.9 | COC(=O)c1cc(O)c2cc(NC(=O)CNC(=O)Nc3ccc(OC)cc3)ccc2c1 [10c, Methyl 4-Hydroxy-6-(2-(3-(4-methoxyphenyl)ureido)acetamido)-2-naphthoate] |  |
| 122 ± 5.8 | 122 ± 5.8 | COC(=O)c1cc(O)c2cc(NC(=O)CCCCNC3=NCCN3)ccc2c1 [5g, Methyl 6-(5-((4,5-Dihydro-1H-imidazol-2-yl)amino)pentanamido)-4-hydroxy-2-naphthoate] |  |
| 69.7 ± 2 | 69.7 ± 2 | N=C(N)NCCCCC(=O)Nc1ccc2cc(C(=O)O)cc(O)c2c1 [6a, 6-(5-Guanidinopentanamido)-4-hydroxy-2-naphthoic Acid] |  |
| 36.8 ± 0.3 | 36.8 ± 0.3 | CN(C)C(=N)NCCCCC(=O)Nc1ccc2cc(C(=O)O)cc(O)c2c1 [6e, 6-(5-(3,3-Dimethylguanidino)pentanamido)-4-hydroxy-2-naphthoic Acid] |  |
